In patent publication US5773522A, “Polymer-bound camptothecin derivatives” (priority 1993, dated 1998):

Columns and labels:
HT29/Colon Carcinoma = experiment: Antitumor activity in athymic mice transplanted s.c. with HT29 Colon Carcinoma; type: in vivo, athymic Swiss/nu/ mice; settings: for % tumor inhib. / TOX (number of toxic deaths/total number of mice) / cured mice (tumor free mice 90 days after tumor implant): 7.5 mg/kg (CPT equivalent), iv q4dx6
Description: (§1) Camptothecin (CPT) was dissolved in sterile water with 10% tween.
(§2) Treatment was administered i.v. in a volume of 10 ml/kg of body weight and control mice were treated with sterile water.
HT29 Colon Carcinoma was transplanted s.c. in athymic Swiss/nu/ mice using 15-20 mg of tumor brei.
(§3) All animals were from Charles River Calco, Como, Italy.
(§4) Ten mice/group for conventional and eight for athymic mice were used.
(§5) The mouse colony was routinely tested for the absence of antibodies to a panel of pathogens including Mouse Hepatitis, Sendai Virus and Mycoplasma Pulmonis.
(§6) Tumor growth was assesed by caliper measurement and the tumor weight estimated according to Geran et al. (see: Cancer Chem.Rep., Part 3, 3 (2) ed. 3, pp 1-103, 1972). The antitumor activity is expressed as percentage of inhibition of tumor growth (%T/I) using the following formula: [formula] The median increase in survival time (T/C%) was calculated using the following formula: [formula]
Cured mice are mice without tumor at the end of the experiment.
(§7) Toxicity was evaluated on the basis of the body weight reduction and gross autopsy findings, mainly in terms of reduction of spleen and liver size.

[1] = Toxicity (LD10, LD50) in healthy mice; type: in vivo, C57Bl/F mice; settings: mouse, in vivo, iv, healthy C57B1/F mice; read-out: LD50 (dose inducing 50% of death mice)
healthy C57Bl/F mice = experiment: Toxicity (LD10, LD50) in healthy mice; type: in vivo; settings: i.v., healthy C57B1/F mice
[2] = test system: early M5076 murine reticulosarcoma; experiment: Antitumor activity against early M5076 murine reticulosarcoma; type: in vivo, C57Bl/6 mice; settings: 7.5 mg/kg (CPT equivalent); for % tumor inhib.: estimated one week after the last treatment
Description: Camptothecin (CPT) was dissolved in sterile water with 10% tween. […]
(§8) M5076 muine reticulosarcoma was maintained by serial i.m. passages and transplanted s.c. (5×10^5 cells/mouse) in compatible C57Bl/6 mice.
as §3, §4
(§9) The conventional mice weighed 20 to 22 g and were kept under standard laboratory conditions.
as §5, §6, §7

[3] = test system: advanced M5076 murine reticulosarcoma; experiment: Antitumor activity against advanced M5076 murine reticulosarcoma; type: in vivo, C57Bl/6 mice; settings: iv on day 16,20,24,28,31,35; for % tumor inhibition: estimated at day 34
Description: as §1, §2, §8, §3, §4, §9, §5, §6, §7

[4] = background statement; cited from earlier work
Water solubility = type: physicochemical; settings: dissolved in saline
[5] = Stability of polymeric conjugates in murine or human plasma (camptothecin release); type: in vitro ADME
Description: Each sample was extracted by adding 100 μl of 0.25M phosphoric acid, 500 μl CH3 CN and 700 μl ethyl acetate and vigorously shaking for 20 minutes at 4° C. After that time, the sample was spun at 15000×g for 10 minutes and the supernatant was separated. To the residue was added 300 μl of CH3 CN and 500 μl was spun at 15000×g for 10 minutes. The supernatant was separated. The organic phases were pooled and evaporated using a high vacuum centrifuge. The sample was recovered by adding 500 μl of MeOH/water pH2 (70/30 by volume) and injected into HPLC apparatus for determining the total drug percentage content.

What does the source list for `CC[C@@]1(O)C(=O)OCc2c1cc1n(c2=O)Cc2cc3ccccc3nc2-1` [CPT, camptothecin]?
% tumor inhib. (HT29/Colon Carcinoma): 83%; TOX (number of toxic deaths/total number of mice) (HT29/Colon Carcinoma): 0/10; cured mice (tumor free mice 90 days after tumor implant) (HT29/Colon Carcinoma): 0/10; LD50 [1]: 43.4 mg/kg; LD10 (dose inducing 10% of death mice) (healthy C57Bl/F mice): 16.9 mg/kg; T/C % (median increase in survival time) ([2]; ip 1,6,9): 165%; TOX (number of toxic deaths/total number of mice) ([2]; ip 1,6,9): 0/10; % tumor inhib. ([2]; ip 1,6,9): 100%; T/C % (median increase in survival time) ([3]; 7.5 mg/kg (CPT equivalent)): 173%; TOX (number of toxic deaths/total number of mice) ([3]; 7.5 mg/kg (CPT equivalent)): 0/10; % tumor inhibition ([3]; 7.5 mg/kg (CPT equivalent)): 72%; solubility in vehicles suitable for parenteral administration (in words) [4]: practically insoluble

What does the source list for “Copolymer of N-(2-hydroxypropyl)methacrylamide, 20-O-[N-methacryloylglycyl -L-phenylalanyl-L-leucylglycyl] camptothecin and N-(2-hydroxypropyl) methacryloylglycinamide [Compound A2]”?
water solubility (in words) (Water solubility): highly water soluble; % tumor inhib. (HT29/Colon Carcinoma): 96%; TOX (number of toxic deaths/total number of mice) (HT29/Colon Carcinoma): 0/18; cured mice (tumor free mice 90 days after tumor implant) (HT29/Colon Carcinoma): 3/18; antitumor activity compared with camptothecin (in words) (HT29/Colon Carcinoma; all experiments (HT29, early and advanced M5076)): striking higher activity; camptothecin released after plasma incubation ([5]; after 60 hours): 100%; T/C % (median increase in survival time) ([2]; iv 1,6,9): 171%; TOX (number of toxic deaths/total number of mice) ([2]; iv 1,6,9): 0/10; % tumor inhib. ([2]; iv 1,6,9): 100%; T/C % (median increase in survival time) ([3]; 10.0 mg/kg (CPT equivalent)): 174%; TOX (number of toxic deaths/total number of mice) ([3]; 10.0 mg/kg (CPT equivalent)): 0/10; % tumor inhibition ([3]; 10.0 mg/kg (CPT equivalent)): 80%; T/C % (median increase in survival time) ([3]; 15.0 mg/kg (CPT equivalent)): 183%; TOX (number of toxic deaths/total number of mice) ([3]; 15.0 mg/kg (CPT equivalent)): 0/10; % tumor inhibition ([3]; 15.0 mg/kg (CPT equivalent)): 95%

Which “camptothecin released after plasma incubation” value ([5]; after 120 hours) does the source give for “Copolymer of N-(2-hydroxypropyl)methacrylamide, 20-O-[N-methacryloylglycyl-(6-aminohexanoylyl]camptothecin and N-(2-hydroxy -propyl)methacryloylglycinamide [Al]” here?
The value was 10%.

With “Copolymer of N-(^2 -hydroxypropyl)methacrylamide) 9-amino-20-O-[N-methacryloylglycyl-L-phenylalanyl-L-leucylglycyl] campto-thecin and N-(2-hydroxypropyl)methacryloylalycinamide [Compound A3]” as the compound, how does the “camptothecin released after plasma incubation” value ([5]; after 50 hours) read?
The value was 100%.
